In patent US20130060024A1, “Compounds useful for treating neurodegenerative disorders” (SATORI PHARMACEUTICALS, INC., priority 2011, published 2013) one finds IC50 data, which are given here for five compounds.

Format in all cases: cell-based
For one assay, the system named is Aβ-42. The experiment in a line: Aβ-42 MSD 3-PLEX ELISA, conditioned media of 2B7 cells. The following applies: Homo sapiens. As for the experimental part:
(§1) Assays were conducted to determine the ability of a Compound of Formula I to modulate […], […], and Aβ-38. Human (6E10) Ab 3-PLEX ELISA kits were purchased from Meso Scale Discovery Labs, 9328 Gaither Road, Gaithersburg, Md. 20877 (Catalog Number […]-3). Plates with capture antibodies were blocked for 1-2 hours at room temperature with 150 μL of the manufactures blocking reagent. Cultured 2B7 cells in 96 well plate with 250 μL of media per well until confluent; Prepared serial dilutions of compounds in DMSO at 100× the final desired concentration; Washed wells with 2B7 cells 1× with 250 μL of media; Diluted DMSO stocks 1:100 into media: Added 250 μL of media containing compounds (1% DMSO) to wells with 2B7 cells for 5 hours at 37° C. Diluted conditioned media: 1 part media with 1% DMSO and 1 part blocking buffer; 150 μL of the 250 μL of conditioned media were used. Seven point standard curve samples were prepared that contained Aβ-42, Aβ-40, and Aβ-38. The highest concentration of Aβ-42 and Aβ-38 was 3,000 pg/mL and the highest concentration of Aβ-40 was 10,000 pg/mL. Subsequent serial dilutions were 1:3 and the final composition of each sample was 1 part blocking buffer and 1 part cell medium containing 1% DMSO. Blocked plates are washed 5× with MSD wash buffer with a plate washer; 25 μL of detection antibody and blocker G reagent in MSD blocking solution was added; 25 μL of samples (1 part conditioned media containing 1% DMSO and 1 part MSD blocking buffer) were then added; Plates were incubated overnight at 4 degrees C. or 2 hours at room temperature. Washed wells 5× with MSD wash buffer; Added 150 μL 2×MSD read buffer; Read with MSD imager. Aβ peptide levels for each peptide were calculated from the standard curve using the MSD software provided with the MSD 2400 Imager. Percent vehicle values for each compound dosage were then calculated and fit to a 4 parameter curve generating IC50 values.

The next assay deals with Aβ-38. The experiment in a line: Aβ-38 MSD 3-PLEX ELISA, conditioned media of 2B7 cells. The following applies: Homo sapiens. As for the experimental part:
as §1

The next assay concerns Aβ-40. The experiment in a line: Aβ-40 MSD 3-PLEX ELISA, conditioned media of 2B7 cells. The following applies: Homo sapiens; 2B7 cells, 5 hours at 37° C., 1% DMSO; read-out: Aβ 40 IC50. As for the experimental part:
as §1

The mark [1] stands for this setting: 5 h, read-out: Aβ 42 DR IC50 Inflection.
Setting [2] is: 2B7 cells, 5 hours at 37° C., 1% DMSO, read-out: Aβ 42 IC50.
[3] abbreviates: 2B7 cells, 5 hours at 37° C., 1% DMSO, read-out: Aβ 38 IC50.

Read-outs that look alike come from different tables or passages of the source.

Consider `CCO[C@@H]([C@H]1C[C@@H](C)[C@H]2[C@H](O1)[C@H](O)[C@@]1(C)[C@@H]3CC[C@H]4C(C)(C)[C@@H](OC(=O)N5CC(NC)C5)CC[C@@]45C[C@@]35CC[C@]21C)C(C)(C)O` [Compound I-9], for which the IC50 lay within 0.1 to 0.5 µM with Aβ-42 (setting [1]); 0.1 to 0.5 µM with Aβ-42 (setting [2]); 0.1 to 0.5 µM with Aβ-38 (5 h, read-out: Aβ 38 DR IC50 Inflection); 0.1 to 0.5 µM with Aβ-38 (setting [3]); 1 to 5 µM with Aβ-40.
Regarding `CCO[C@@H]([C@H]1C[C@@H](C)[C@H]2[C@H](O1)[C@H](O)[C@@]1(C)[C@@H]3CC[C@H]4C(C)(C)[C@@H](OC(=O)NCCN5CCOCC5)CC[C@@]45C[C@@]35CC[C@]21C)C(C)(C)O` [Compound I-12], the IC50 in the assay on Aβ-42 (setting [1]) is 0.1 to 0.5 µM; in the assay with Aβ-42 (setting [2]) it was 0.1 to 0.5 µM; in the assay on Aβ-38 (setting [3]), 1 to 5 µM; with Aβ-40, above 5 µM.
As for `CCO[C@@H]([C@H]1C[C@@H](C)[C@H]2[C@H](O1)[C@H](O)[C@@]1(C)[C@@H]3CC[C@H]4C(C)(C)[C@@H](OC(=O)NCCN5CCN(C6COC6)CC5)CC[C@@]45C[C@@]35CC[C@]21C)C(C)(C)O` [Compound I-17], the IC50 with Aβ-42 (setting [1]) fell in the range of 0.1 to 0.5 µM; in the assay on Aβ-42 (setting [2]), 0.1 to 0.5 µM; with Aβ-38 (setting [3]) it was 0.1 to 0.5 µM; with Aβ-40 it was 1 to 5 µM.
As to `CCO[C@@H]([C@H]1C[C@@H](C)[C@H]2[C@H](O1)[C@H](O)[C@@]1(C)[C@@H]3CC[C@H]4C(C)(C)[C@@H](OC(=O)NCCN5CC(F)(F)C5)CC[C@@]45C[C@@]35CC[C@]21C)C(C)(C)O` [Compound I-18], the IC50 is 0.1 to 0.5 µM in the assay on Aβ-42 (setting [1]), 0.1 to 0.5 µM in the assay with Aβ-42 (setting [2]), 0.501 to 1 µM in the assay with Aβ-38 (setting [3]) and above 5 µM in the assay with Aβ-40.
On to `CCO[C@@H]([C@H]1C[C@@H](C)[C@H]2[C@H](O1)[C@H](O)[C@@]1(C)[C@@H]3CC[C@H]4C(C)(C)[C@@H](OC(=O)NC5CN(C6CCC6)C5)CC[C@@]45C[C@@]35CC[C@]21C)C(C)(C)O` [Compound I-22], for which the IC50 with Aβ-42 (setting [1]) fell in the range of 0.1 to 0.5 µM; in the assay on Aβ-42 (setting [2]), 0.1 to 0.5 µM; in the assay with Aβ-38 (setting [3]) it was 0.501 to 1 µM; with Aβ-40, 1 to 5 µM.
